The NIST ThermoML archive (doi:10.1016/j.tca.2015.08.013)

Settings: for surface tension liquid-gas: Drop volume; for mass density / kinematic viscosity / speed of sound / vapor or sublimation pressure: Liquid; for mass density: Vibrating tube method; for kinematic viscosity / speed of sound: 101.33 kPa; for kinematic viscosity: Capillary tube (Ostwald / Ubbelohde) method; for speed of sound: Sing-around technique in a fixed-path interferometer; for vapor or sublimation pressure: Ebulliometric method (Recirculating still)

Cc1ccco1 [2-methylfuran]
Settings | kinematic viscosity [m2/s] | speed of sound [m/s] | surface tension liquid-gas [mN/m] | vapor or sublimation pressure [kPa]
278.15 K | 5.39e-07 | 1254.8 | 27.02 | –
280.65 K | 5.23e-07 | 1243.4 | 26.6 | –
283.15 K | 5.08e-07 | 1231.9 | 26.29 | –
285.37 K | – | – | – | 12.57
285.65 K | 4.93e-07 | 1220.4 | 26 | –
286.86 K | – | – | – | 13.65
288.15 K | 4.79e-07 | 1209 | 25.69 | –
289.1 K | – | – | – | 15.22
290.65 K | 4.66e-07 | 1197.5 | 25.26 | –
291.81 K | – | – | – | 17.26
293.15 K | 4.55e-07 | 1186 | 24.98 | –
293.4 K | – | – | – | 18.52
294.3 K | – | – | – | 19.48
295.65 K | 4.46e-07 | 1174.6 | 24.66 | –
295.86 K | – | – | – | 20.63
297.45 K | – | – | – | 22.34
298.15 K | 4.38e-07 | 1163.2 | 24.34 | –
299.76 K | – | – | – | 24.68
300.65 K | 4.29e-07 | 1151.9 | 24.03 | –
300.83 K | – | – | – | 25.8
303.15 K | 4.2e-07 | 1140.6 | 23.71 | –
303.45 K | – | – | – | 28.68
305.13 K | – | – | – | 30.8
305.65 K | 4.11e-07 | 1129.3 | 23.41 | –
307.42 K | – | – | – | 33.94
308.15 K | 4.01e-07 | 1118.1 | 23.06 | –
308.17 K | – | – | – | 35.04
310.12 K | – | – | – | 37.92
310.65 K | 3.92e-07 | 1106.8 | 22.71 | –
312.06 K | – | – | – | 41.03
313.15 K | 3.83e-07 | 1095.6 | 22.37 | –
314.02 K | – | – | – | 44.3
315.65 K | 3.74e-07 | 1084.4 | 22.08 | –
316.08 K | – | – | – | 47.94
317.22 K | – | – | – | 50.08
318.15 K | 3.66e-07 | 1073.3 | 21.69 | –
319.29 K | – | – | – | 54.16
320.65 K | 3.58e-07 | 1062.1 | 21.35 | –
321.15 K | – | – | – | 58.19
323.05 K | – | – | – | 62.23
323.15 K | 3.5e-07 | 1051 | 21 | –
325.57 K | – | – | – | 68.18
325.65 K | 3.42e-07 | 1039.9 | 20.7 | –
327.23 K | – | – | – | 72.31
328.15 K | 3.36e-07 | 1028.8 | 20.46 | –
329.07 K | – | – | – | 77.17
330.65 K | 3.28e-07 | 1017.7 | 20.08 | –
331.13 K | – | – | – | 82.86
333.15 K | 3.2e-07 | 1006.7 | 19.74 | –
333.27 K | – | – | – | 89.15
334.25 K | – | – | – | 92.22
335.65 K | 3.13e-07 | 995.68 | 19.41 | –
336.39 K | – | – | – | 99.03
337.09 K | – | – | – | 101.33
338.15 K | 3.07e-07 | 984.65 | 19.09 | –

Settings | mass density [kg/m3]
278.15 K, 99 kPa | 934.034
280.65 K, 99 kPa | 931.092
283.15 K, 99 kPa | 928.13
283.15 K, 100 kPa | 928.13
283.15 K, 2500 kPa | 930.56
283.15 K, 5000 kPa | 932.75
283.15 K, 7500 kPa | 935.07
283.15 K, 10000 kPa | 937.27
283.15 K, 20000 kPa | 945.74
283.15 K, 30000 kPa | 953.37
283.15 K, 40000 kPa | 960.5
283.15 K, 50000 kPa | 967.21
283.15 K, 60000 kPa | 973.54
285.65 K, 99 kPa | 925.161
288.15 K, 99 kPa | 922.181
288.15 K, 100 kPa | 922.18
288.15 K, 2500 kPa | 924.54
288.15 K, 5000 kPa | 926.97
288.15 K, 7500 kPa | 929.48
288.15 K, 10000 kPa | 931.62
288.15 K, 20000 kPa | 940.4
288.15 K, 30000 kPa | 948.28
288.15 K, 40000 kPa | 955.59
288.15 K, 50000 kPa | 962.35
288.15 K, 60000 kPa | 968.84
290.65 K, 99 kPa | 919.197
293.15 K, 99 kPa | 916.198
293.15 K, 100 kPa | 916.2
293.15 K, 2500 kPa | 918.63
293.15 K, 5000 kPa | 921.3
293.15 K, 7500 kPa | 923.72
293.15 K, 10000 kPa | 926.09
293.15 K, 20000 kPa | 934.94
293.15 K, 30000 kPa | 943.1
293.15 K, 40000 kPa | 950.59
293.15 K, 50000 kPa | 957.61
293.15 K, 60000 kPa | 964.27
295.65 K, 99 kPa | 913.193
298.15 K, 99 kPa | 910.179
298.15 K, 100 kPa | 910.18
298.15 K, 2500 kPa | 912.71
298.15 K, 5000 kPa | 915.3
298.15 K, 7500 kPa | 918
298.15 K, 10000 kPa | 920.32
298.15 K, 20000 kPa | 929.72
298.15 K, 30000 kPa | 937.91
298.15 K, 40000 kPa | 945.67
298.15 K, 50000 kPa | 952.89
298.15 K, 60000 kPa | 959.58
300.65 K, 99 kPa | 907.155
303.15 K, 99 kPa | 904.121
303.15 K, 100 kPa | 904.12
303.15 K, 2500 kPa | 906.73
303.15 K, 5000 kPa | 909.46
303.15 K, 7500 kPa | 912.07
303.15 K, 10000 kPa | 914.76
303.15 K, 20000 kPa | 924.23
303.15 K, 30000 kPa | 932.75
303.15 K, 40000 kPa | 940.68
303.15 K, 50000 kPa | 948.03
303.15 K, 60000 kPa | 955.1
305.65 K, 99 kPa | 901.077
308.15 K, 99 kPa | 898.02
308.15 K, 100 kPa | 898.02
308.15 K, 2500 kPa | 900.91
308.15 K, 5000 kPa | 903.72
308.15 K, 7500 kPa | 906.43
308.15 K, 10000 kPa | 909.05
308.15 K, 20000 kPa | 918.85
308.15 K, 30000 kPa | 927.65
308.15 K, 40000 kPa | 935.68
308.15 K, 50000 kPa | 943.2
308.15 K, 60000 kPa | 950.35
310.65 K, 99 kPa | 894.953
313.15 K, 99 kPa | 891.871
313.15 K, 100 kPa | 891.87
313.15 K, 2500 kPa | 894.72
313.15 K, 5000 kPa | 897.62
313.15 K, 7500 kPa | 900.57
313.15 K, 10000 kPa | 903.14
313.15 K, 20000 kPa | 913.34
313.15 K, 30000 kPa | 922.45
313.15 K, 40000 kPa | 930.83
313.15 K, 50000 kPa | 938.5
313.15 K, 60000 kPa | 945.71
315.65 K, 99 kPa | 888.779
318.15 K, 99 kPa | 885.676
318.15 K, 100 kPa | 885.68
318.15 K, 2500 kPa | 888.8
318.15 K, 5000 kPa | 891.79
318.15 K, 7500 kPa | 894.77
318.15 K, 10000 kPa | 897.58
318.15 K, 20000 kPa | 907.94
318.15 K, 30000 kPa | 917.27
318.15 K, 40000 kPa | 925.75
318.15 K, 50000 kPa | 933.61
318.15 K, 60000 kPa | 941.15
320.65 K, 99 kPa | 882.558
323.15 K, 99 kPa | 879.425
323.15 K, 100 kPa | 879.43
323.15 K, 2500 kPa | 882.68
323.15 K, 5000 kPa | 885.8
323.15 K, 7500 kPa | 888.76
323.15 K, 10000 kPa | 891.8
323.15 K, 20000 kPa | 902.39
323.15 K, 30000 kPa | 911.96
323.15 K, 40000 kPa | 920.89
323.15 K, 50000 kPa | 929.01
323.15 K, 60000 kPa | 936.53
325.65 K, 99 kPa | 876.278
328.15 K, 99 kPa | 873.118
328.15 K, 100 kPa | 873.12
328.15 K, 2500 kPa | 876.29
328.15 K, 5000 kPa | 879.75
328.15 K, 7500 kPa | 882.71
328.15 K, 10000 kPa | 885.92
328.15 K, 20000 kPa | 896.99
328.15 K, 30000 kPa | 906.92
328.15 K, 40000 kPa | 915.88
328.15 K, 50000 kPa | 924.13
328.15 K, 60000 kPa | 931.92
330.65 K, 99 kPa | 869.944
333.15 K, 99 kPa | 866.753
333.15 K, 100 kPa | 866.75
333.15 K, 2500 kPa | 870.11
333.15 K, 5000 kPa | 873.62
333.15 K, 7500 kPa | 876.95
333.15 K, 10000 kPa | 880.01
333.15 K, 20000 kPa | 891.39
333.15 K, 30000 kPa | 901.64
333.15 K, 40000 kPa | 910.95
333.15 K, 50000 kPa | 919.48
333.15 K, 60000 kPa | 927.42
335.65 K, 99 kPa | 863.547
338.15 K, 99 kPa | 860.327
338.15 K, 100 kPa | 860.33
338.15 K, 2500 kPa | 863.95
338.15 K, 5000 kPa | 867.36
338.15 K, 7500 kPa | 870.91
338.15 K, 10000 kPa | 874.16
338.15 K, 20000 kPa | 886.03
338.15 K, 30000 kPa | 896.44
338.15 K, 40000 kPa | 905.99
338.15 K, 50000 kPa | 914.74
338.15 K, 60000 kPa | 922.79
